Source: ChEMBL document CHEMBL5113544, “Development of Brain-Tumor-Targeted Benzothiazole-Based Boron Complex for Boron Neutron Capture Therapy” (ACS Med Chem Lett, 2022)
pIC50: −log10 of the molar value.

Tests used:
[1] = Effective permeability of the compound in pH 7.4 at 25 uM incubated for 4 hrs by PAMPA-BBB assay; format: ADME; conditions: read-out: Peff
[2] = Octanol/water partition coefficient, logP of compound at 10 mg incubated for 24 hrs by ICP-MS analysis; format: physicochemical
[3] = Biodistribution in blood of BALB/c nude mouse xenografted with human U-87 MG cells assessed as boron concentration at 500 mg/kg, ip measured 4 hrs post injection by ICP-MS analysis; format: ADME, organism-based; conditions: in vivo
[4] = Cytotoxicity against human U-87 MG cells assessed as cell survival at 100 uM incubated for 22 hrs by cell counting kit analysis relative to control; format: functional, U-87MG ATCC; conditions: read-out: Survival
[5] = Cytotoxicity against HEK293 cells assessed as cell survival at upto 100 uM incubated for 22 hrs by cell counting kit analysis relative to control; format: toxicity, cell-based; conditions: human, read-out: Survival
HEK293 = assay: Cytotoxicity against HEK293 cells assessed as reduction in cell survival at higher concentrations incubated for 22 hrs by cell counting kit analysis; format: toxicity, cell-based; conditions: human, hek293, 22 h
[6] = Cytotoxicity against human U-87 MG cells incubated for 22 hrs by cell counting kit analysis; format: functional, cell-based, U-87MG ATCC
[7] = Cytotoxicity against HEK293 cells incubated for 22 hrs by cell counting kit analysis; format: toxicity, cell-based; conditions: human

OB(O)c1ccc(-c2nc3ccccc3s2)cc1
Papp at 4 h, 25 µM [1]: 59.8 ×10⁻⁶ cm/s
logP at 24 h [2]: 0.32
Drug uptake [3]: Active
viability at 100 µM [4]: < 43%
viability at 22 h, up to 100 µM [5]: > 95%
Activity (HEK293): Toxic
pIC50 [6]: 3.95
IC50 at 22 h [7]: 265 µM
